# Measurements reported in ChEMBL document CHEMBL4732141, “Imidazopyridine-Based 5-HT Receptor Neutral Antagonists: Impact of N-Benzyl and N-Phenylsulfonyl Fragments on Different Receptor Conformational States” (J Med Chem, 2021).
# Calls of active or inactive are those of the source. The calls are words filed in the database; no cut-off is given here.
# Legend:
# [1] = Stability in pH 1 buffer assessed as compound decomposition after 1 hr; type: physicochemical; conditions: pH 1, 1 h
# [2] = Stability in deuterated dimethyl sulfoxide; type: physicochemical
# [3] = biological target: T1, 5-hydroxytryptamine receptor 1A (Homo sapiens, UniProt P08908); test: Displacement of […] from human 5HT1A expressed in HEK293 cell membranes incubated for 1 hr by micro-beta plate reader based analysis; parameters: species or system Cell membrane
# T1 sequence (P08908 whole entry): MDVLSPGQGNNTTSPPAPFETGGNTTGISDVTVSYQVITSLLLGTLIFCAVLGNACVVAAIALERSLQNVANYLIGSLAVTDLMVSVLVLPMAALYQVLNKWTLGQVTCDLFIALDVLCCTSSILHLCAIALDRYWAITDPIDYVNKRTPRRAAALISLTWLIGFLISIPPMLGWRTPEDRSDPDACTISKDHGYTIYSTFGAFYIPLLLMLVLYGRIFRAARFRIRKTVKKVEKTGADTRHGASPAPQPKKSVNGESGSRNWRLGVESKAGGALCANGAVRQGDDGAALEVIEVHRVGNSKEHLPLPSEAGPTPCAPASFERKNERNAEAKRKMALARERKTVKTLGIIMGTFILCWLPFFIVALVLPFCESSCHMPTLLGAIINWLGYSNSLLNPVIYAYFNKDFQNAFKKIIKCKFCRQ
# [4] = biological target: 5-hydroxytryptamine receptor 2A (Homo sapiens, UniProt P28223); test: Displacement of […] from human 5HT2A expressed in HEK293 cell membranes incubated for 1 hr by micro-beta plate reader based analysis; parameters: species or system Cell membrane
# Chain of 5-hydroxytryptamine receptor 2A (P28223 whole entry): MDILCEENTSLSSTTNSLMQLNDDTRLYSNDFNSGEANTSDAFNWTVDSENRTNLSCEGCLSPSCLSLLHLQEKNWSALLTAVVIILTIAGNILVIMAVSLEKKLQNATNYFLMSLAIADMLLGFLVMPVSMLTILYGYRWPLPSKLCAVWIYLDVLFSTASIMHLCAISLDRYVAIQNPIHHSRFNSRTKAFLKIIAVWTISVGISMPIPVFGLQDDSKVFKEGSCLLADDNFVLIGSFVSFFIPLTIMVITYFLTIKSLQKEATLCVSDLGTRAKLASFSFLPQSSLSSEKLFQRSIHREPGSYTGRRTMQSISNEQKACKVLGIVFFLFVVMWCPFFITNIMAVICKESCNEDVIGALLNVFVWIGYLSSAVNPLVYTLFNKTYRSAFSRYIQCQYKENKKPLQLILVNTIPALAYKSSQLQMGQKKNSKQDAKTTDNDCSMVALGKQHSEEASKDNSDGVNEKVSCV
# [5] = Neurotoxicity in human SH-SY5Y cells assessed as reduction in cell viability incubated for 24 hrs by MTT assay; type: toxicity, cell-based
# [6] = biological target: 5-hydroxytryptamine receptor 6 (Homo sapiens, UniProt P50406); test: Binding affinity to 5HT6R (unknown origin)
# Chain of 5-hydroxytryptamine receptor 6 (P50406 whole entry): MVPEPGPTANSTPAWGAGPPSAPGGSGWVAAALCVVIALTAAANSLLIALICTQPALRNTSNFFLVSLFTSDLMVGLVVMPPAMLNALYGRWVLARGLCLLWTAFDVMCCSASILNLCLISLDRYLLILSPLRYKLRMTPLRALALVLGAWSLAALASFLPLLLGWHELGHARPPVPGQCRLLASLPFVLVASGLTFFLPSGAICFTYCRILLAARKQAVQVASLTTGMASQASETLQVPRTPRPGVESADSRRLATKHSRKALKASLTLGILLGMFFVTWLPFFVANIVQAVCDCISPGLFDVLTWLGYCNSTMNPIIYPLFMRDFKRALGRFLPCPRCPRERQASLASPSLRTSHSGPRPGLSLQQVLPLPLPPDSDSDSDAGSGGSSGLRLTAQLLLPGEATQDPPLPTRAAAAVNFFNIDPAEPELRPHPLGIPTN
# [7] = tested on: Astrocyte; test: Glio-protective activity in mouse C8-D1A astrocytes assessed as reduction in DOX-induced toxicity at […] pre-incubated for 5 hrs before doxorubicin addition and measured after 3 hrs by MTT assay; type: functional, cell-based; conditions: dose 0.25 µM, time 8.0 hrs
# [8] = Toxicity in mouse C8-D1A astrocytes assessed as reduction in cell viability by MTT assay; type: cell-based, Astrocyte
# [9] = tested on: Astrocyte; test: Glio-protective activity in mouse C8-D1A astrocytes assessed as reduction in 6-OHDA-induced toxicity at […] pre-incubated for 12 hrs before doxorubicin addition and measured after 24 hrs by LDH assay; type: functional, cell-based; conditions: dose 0.25 µM, time 36.0 hrs
# [10] = tested on: Astrocyte; test: Glio-protective activity in mouse C8-D1A astrocytes assessed as reduction in 6-OHDA-induced toxicity at […] pre-incubated for 12 hrs before doxorubicin addition and measured after 24 hrs by MTT assay; type: functional, cell-based; conditions: dose 0.25 µM, time 36.0 hrs
# [11] = Toxicity in mouse C8-D1A astrocytes assessed as reduction in cell viability at […] by MTT assay; type: cell-based; conditions: astrocyte, dose 0.25 µM
# [12] = tested on: Astrocyte; test: Glio-protective activity in mouse C8-D1A astrocytes assessed as reduction in DOX-induced toxicity at […] pre-incubated for 5 hrs before doxorubicin addition and measured after 3 hrs by LDH release assay; type: functional, cell-based; conditions: dose 0.25 µM
# [13] = Effect on neurite growth in […] NG108-15 cells expressing GFP-tagged 5-HT6 receptor assessed as neurite length at 1 uM incubated for 24 hrs by epifluorescence microscopy (reference value: 37.20 +/- 1.53 micrometer); type: functional
# [14] = biological target: beta-1 adrenergic receptor (Homo sapiens, UniProt P08588); test: Inhibition of human beta1 adrenergic receptor at 1 uM relative to control
# Chain of beta-1 adrenergic receptor (P08588 whole entry): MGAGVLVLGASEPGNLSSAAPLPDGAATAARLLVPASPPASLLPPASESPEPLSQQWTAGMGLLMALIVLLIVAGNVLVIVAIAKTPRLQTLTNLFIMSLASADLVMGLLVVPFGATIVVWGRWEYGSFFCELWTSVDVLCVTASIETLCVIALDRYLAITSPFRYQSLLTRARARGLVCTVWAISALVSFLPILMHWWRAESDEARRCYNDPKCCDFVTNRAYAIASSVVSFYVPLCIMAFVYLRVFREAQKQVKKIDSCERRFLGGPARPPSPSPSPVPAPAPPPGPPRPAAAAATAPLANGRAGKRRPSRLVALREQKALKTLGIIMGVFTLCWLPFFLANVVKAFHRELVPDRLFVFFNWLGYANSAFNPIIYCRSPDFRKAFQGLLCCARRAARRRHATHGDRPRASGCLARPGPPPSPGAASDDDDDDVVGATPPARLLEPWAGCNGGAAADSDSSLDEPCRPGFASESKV
# [15] = biological target: T1, 5-hydroxytryptamine receptor 1A; test: Agonist activity at human 5HT1A expressed in HEK293 cells assessed as stimulation of cAMP production incubated for 30 mins by LANCE ultra cAMP detection assay; type: cell-based
# [16] = biological target: T2, alpha-1A adrenergic receptor (Homo sapiens, UniProt P35348); test: Inhibition of human alpha1A adrenergic receptor at 1 uM relative to control
# T2 sequence (P35348 whole entry): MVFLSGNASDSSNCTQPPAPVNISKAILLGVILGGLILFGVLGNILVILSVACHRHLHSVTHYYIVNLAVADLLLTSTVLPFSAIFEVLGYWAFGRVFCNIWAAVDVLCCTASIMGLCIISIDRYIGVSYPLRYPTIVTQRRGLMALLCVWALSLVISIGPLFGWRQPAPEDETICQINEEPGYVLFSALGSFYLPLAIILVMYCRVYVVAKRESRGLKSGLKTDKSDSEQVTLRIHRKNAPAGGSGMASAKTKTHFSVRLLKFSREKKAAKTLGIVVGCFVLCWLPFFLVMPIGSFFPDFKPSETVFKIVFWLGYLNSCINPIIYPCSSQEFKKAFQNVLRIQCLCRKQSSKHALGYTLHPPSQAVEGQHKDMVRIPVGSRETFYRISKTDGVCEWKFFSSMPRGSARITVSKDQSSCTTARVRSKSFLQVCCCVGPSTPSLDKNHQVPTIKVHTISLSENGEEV
# [17] = biological target: T3, muscarinic acetylcholine receptor M1 (Homo sapiens, UniProt P11229); test: Inhibition of human muscarinic receptor 1 at 1 uM relative to control
# T3 sequence (P11229 whole entry): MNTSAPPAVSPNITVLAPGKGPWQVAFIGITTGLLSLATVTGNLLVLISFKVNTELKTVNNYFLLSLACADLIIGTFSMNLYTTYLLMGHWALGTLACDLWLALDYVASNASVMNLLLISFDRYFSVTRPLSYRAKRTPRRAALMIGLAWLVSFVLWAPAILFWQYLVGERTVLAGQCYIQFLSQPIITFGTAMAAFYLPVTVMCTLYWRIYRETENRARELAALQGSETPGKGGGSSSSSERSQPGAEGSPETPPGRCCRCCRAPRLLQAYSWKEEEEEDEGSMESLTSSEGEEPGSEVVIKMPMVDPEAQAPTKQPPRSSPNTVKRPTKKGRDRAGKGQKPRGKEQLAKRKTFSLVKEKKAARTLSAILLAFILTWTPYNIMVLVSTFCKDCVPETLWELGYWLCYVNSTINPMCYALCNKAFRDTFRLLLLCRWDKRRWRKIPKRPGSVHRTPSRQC
# [18] = biological target: histamine H1 receptor (HRH1) (Homo sapiens, UniProt P35367); test: Inhibition of human HRH1 at 1 uM relative to control
# Chain of histamine H1 receptor (HRH1) (P35367 whole entry): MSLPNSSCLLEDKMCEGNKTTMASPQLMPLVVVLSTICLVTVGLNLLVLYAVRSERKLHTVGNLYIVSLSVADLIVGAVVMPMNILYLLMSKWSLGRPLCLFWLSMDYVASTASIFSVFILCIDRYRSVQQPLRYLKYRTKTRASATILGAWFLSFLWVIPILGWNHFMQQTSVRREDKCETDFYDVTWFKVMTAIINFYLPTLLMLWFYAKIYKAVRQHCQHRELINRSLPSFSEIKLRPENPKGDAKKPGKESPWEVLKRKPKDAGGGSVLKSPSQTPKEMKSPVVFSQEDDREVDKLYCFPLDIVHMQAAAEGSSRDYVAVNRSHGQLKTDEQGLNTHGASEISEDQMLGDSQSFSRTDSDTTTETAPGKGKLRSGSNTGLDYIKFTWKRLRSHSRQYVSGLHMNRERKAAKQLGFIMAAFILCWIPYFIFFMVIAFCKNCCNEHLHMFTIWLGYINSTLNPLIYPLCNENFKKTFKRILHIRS
# [19] = biological target: T1, 5-hydroxytryptamine receptor 1A; test: Antagonist activity at human 5HT1A expressed in HEK293 cells assessed as reduction in forskolin-induced stimulation of cAMP production incubated for 30 mins by LANCE ultra cAMP detection assay; type: cell-based; conditions: hek293, 0.5 h
# [20] = biological target: hERG (KCNH2) (Homo sapiens, UniProt Q12809); test: Inhibition of human ERG at 1 uM relative to control
# Chain of hERG (KCNH2) (Q12809 whole entry): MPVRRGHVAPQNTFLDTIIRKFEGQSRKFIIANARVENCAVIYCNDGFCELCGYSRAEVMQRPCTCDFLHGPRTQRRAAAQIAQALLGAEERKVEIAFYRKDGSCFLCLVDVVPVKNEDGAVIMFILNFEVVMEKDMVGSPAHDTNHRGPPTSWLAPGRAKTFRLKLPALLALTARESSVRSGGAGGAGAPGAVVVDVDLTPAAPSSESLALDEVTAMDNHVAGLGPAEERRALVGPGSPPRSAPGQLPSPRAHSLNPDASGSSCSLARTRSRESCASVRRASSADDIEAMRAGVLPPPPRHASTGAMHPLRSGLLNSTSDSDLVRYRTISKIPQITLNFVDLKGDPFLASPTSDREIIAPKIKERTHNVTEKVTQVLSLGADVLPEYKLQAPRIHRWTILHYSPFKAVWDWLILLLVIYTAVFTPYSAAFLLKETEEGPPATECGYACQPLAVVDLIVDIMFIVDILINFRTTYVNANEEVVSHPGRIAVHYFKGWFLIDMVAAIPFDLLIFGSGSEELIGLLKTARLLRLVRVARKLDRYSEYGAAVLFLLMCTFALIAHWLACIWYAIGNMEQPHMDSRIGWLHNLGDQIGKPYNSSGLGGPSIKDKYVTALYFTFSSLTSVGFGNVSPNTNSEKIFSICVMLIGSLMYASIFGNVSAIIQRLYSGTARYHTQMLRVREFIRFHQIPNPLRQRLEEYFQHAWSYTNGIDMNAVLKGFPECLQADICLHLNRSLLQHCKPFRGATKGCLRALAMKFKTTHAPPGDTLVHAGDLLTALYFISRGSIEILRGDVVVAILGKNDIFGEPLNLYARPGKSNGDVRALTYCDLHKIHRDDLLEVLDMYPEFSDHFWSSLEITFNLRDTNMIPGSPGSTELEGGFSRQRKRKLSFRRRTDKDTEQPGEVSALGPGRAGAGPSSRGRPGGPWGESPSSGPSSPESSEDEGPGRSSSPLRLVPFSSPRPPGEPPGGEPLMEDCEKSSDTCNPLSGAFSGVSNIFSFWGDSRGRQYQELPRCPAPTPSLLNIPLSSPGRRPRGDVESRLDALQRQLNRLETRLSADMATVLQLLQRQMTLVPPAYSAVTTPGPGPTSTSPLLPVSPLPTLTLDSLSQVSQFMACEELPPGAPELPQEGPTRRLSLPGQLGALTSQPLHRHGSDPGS
# [21] = Stability in pH 1 buffer assessed as compound decomposition after 24 hrs; type: physicochemical; conditions: pH 1, 24 h
Structure (SMILES),Stabilty [1],Stabilty [2],other results
O=S(=O)(c1cccc(F)c1)n1cnc2c(N3CCNCC3)nccc21,Stable,Unstable,
CCc1nc2c(N3CCNCC3)nccc2n1S(=O)(=O)c1cccc(F)c1,Stable,Unstable,Ki [3]: 829 nM; Ki [4]: 264 nM
COc1cccc2c1C(=O)c1c(O)c3c(c(O)c1C2=O)C[C@@](O)(C(=O)CO)C[C@@H]3O[C@H]1C[C@H](N)[C@H](O)[C@H](C)O1 [DOXORUBICIN],,,IC50 at 24 h [5]: 2300 nM
Cc1nc2c(N3CCNCC3)cccc2n1S(=O)(=O)c1ccccc1 [PF-05212377],,,Ki [6]: 0.5 nM
CC(C)c1nc2c(N3CCNCC3)nccc2n1S(=O)(=O)c1cccc(F)c1,Stable,Unstable,
CC(C)c1nc2c(N3CCNCC3)nccc2n1S(=O)(=O)c1cccc(Cl)c1,Stable,Unstable,Ki [3]: 307 nM; Ki [4]: 239 nM
O=S(=O)(c1cccc(Cl)c1)n1cnc2c(N3CCNCC3)nccc21,Stable,Unstable,Ki [3]: 285 nM; Ki [4]: 355 nM
COc1ccc(NS(=O)(=O)c2ccc(I)cc2)cc1N1CCN(C)CC1,,,Activity [7]: inactive; CC50 [8]: > 1000 nM; Activity [9]: inactive; Activity [10]: inactive; Activity [11]: Non-Toxic; Activity [12]: inactive
O=S(=O)(c1cccc(Cl)c1)n1c(-c2ccccc2)nc2c(N3CCNCC3)nccc21,Stable,Unstable,Ki [3]: 1090 nM; Ki [4]: 410 nM
O=S(=O)(c1ccccc1)c1cnc2c(N3CCNCC3)cccc2c1 [INTEPIRDINE],Stable,,Activity [13]: 12.06 um; CC50 [8]: > 1000 nM; Activity [11]: Non-Toxic
CCc1nc2c(N3CCNCC3)nccc2n1S(=O)(=O)c1cccc(Cl)c1,Stable,Unstable,inhibition at 1 µM [14]: 10%; Ki [3]: 146 nM; Ki [4]: 562 nM; EC50 [15]: > 20000 nM; inhibition at 1 µM [16]: 22%; inhibition at 1 µM [17]: 4%; inhibition at 1 µM [18]: 6%; Activity [19]: Not Active; inhibition at 1 µM [20]: 12%
COc1cccc(S(=O)(=O)n2cnc3c(N4CCNCC4)nccc32)c1,Stable,Unstable,
COc1cccc(S(=O)(=O)n2c(C(C)C)nc3c(N4CCNCC4)nccc32)c1,Stable,Unstable,Stabilty [21]: Stable

# Now from value to compound, other results behind:
Stabilty [1],Stabilty [2],Structure (SMILES),other results
Stable,Unstable,O=S(=O)(c1ccccc1)n1cnc2c(N3CCNCC3)nccc21,
Stable,Unstable,COc1cccc(S(=O)(=O)n2c(-c3ccccc3)nc3c(N4CCNCC4)nccc32)c1,
Stable,Unstable,O=S(=O)(c1cccc(F)c1)n1c(-c2ccccc2)nc2c(N3CCNCC3)nccc21,
Stable,Unstable,O=S(=O)(c1ccccc1)n1c(-c2ccccc2)nc2c(N3CCNCC3)nccc21,
Stable,Unstable,CC(C)c1nc2c(N3CCNCC3)nccc2n1S(=O)(=O)c1ccccc1,
